From ChEMBL document CHEMBL3988181, “GlaxoSmithKline Published Kinase Inhibitor Set 2 Onchocerca lienalis Screening Data”

Test: GSK PKIS2: Screen against O. lienalis microfilariae, single point, at 3.1uM to assess reduction in motility. Compounds were also tested for cytotoxicity against Rhesus Monkey LLCMK2 cells.
Format: functional, Onchocerca lienalis, LLC-MK2
Conditions: CELL_LINE LLCMK2; CELL_SUPPLIER ECACC; CONC 3.1 uM; ORGANISM_SUPPLIER Extracted from peri-umbilical skin obtained from naturally infected cattle in the UK; temperature 37 degree C

Row | Structure (SMILES) | MOTILITY REDUCTION/CYTOTOXICITY
1 | CN1CCN(CCCNc2nccc(-c3c(-c4ccc(F)cc4)nn4cc(C(N)=O)ccc34)n2)CC1 | 13.4%
2 | FC(F)(F)c1cc(Nc2nccc(-c3c(-c4ccc(Cl)cc4)nn4ncccc34)n2)ccc1Cl | 20%
3 | COc1ccc(NC(=O)c2ccoc2)cc1-c1ccc(C(=O)NCC2CC2)cc1 | 13.4%
4 | O=c1cc(N2CCOCC2)nc2n(Cc3cccc(Cl)c3Cl)ccn12 | 80%
5 | CNc1nccc(-c2c(-c3ccc(F)cc3)ncn2C2CCN(C)CC2)n1 | 13.4%
6 | CCCCc1nn2ncccc2c1-c1ccnc(Nc2ccc(N3CCN(C)CC3)cc2)n1 | 13.4%
7 | O=C(NCCNc1ccnc(Nc2ccc(F)cc2)n1)c1cc2ccccc2s1 | 66.7%
8 | CS(=O)(=O)c1ccccc1-c1nc(-c2ccc(F)cc2)c(-c2ccncc2)[nH]1 | 33.4%
9 | COc1ccc(Nc2nccc(N3CCC(NC(=O)c4cccc(NC(C)=O)c4)C3)n2)cc1 (stereo unspecified) | 0%
10 | COc1ccc(NC(=O)Nc2ccc(C)c(-c3ccc(C(=O)Nc4ccncc4)cc3)c2)cc1 | 80%
11 | c1ccc(-c2cc(-c3c[nH]nc3-c3ccccn3)ccn2)cc1 | 0%
12 | Nc1ncnc2occ(-c3ccc4c(c3)CCN4C(=O)Cc3cc(F)ccc3F)c12 | 16.7%
13 | Clc1cccc(-c2nc(Nc3ccncc3)c3ccccc3n2)c1 | 0%
14 | COc1cc(Nc2nccc(-c3c(-c4cccc(NC(=O)c5c(F)cccc5F)c4)nn4ccccc34)n2)cc(OC)c1OC | 20%
15 | COc1ccc(-n2cnc3c(N)ncnc32)cc1 | 0%
16 | COc1cc2ncn(-c3cc(OCc4ccncc4Br)c(C(N)=O)s3)c2cc1OC | 0%
17 | Cc1ccc(NC(=O)c2cccc(C#N)c2)cc1-c1ccc(C(=O)Nc2ccncc2)cc1 | 73.4%
18 | Clc1cc(Cl)cc(Nc2ccnc(Nc3cc(Cl)cc(Cl)c3)n2)c1 | 86.7%
19 | Nc1cccc(-c2ccc3c(N)n[nH]c3c2)n1 | 0%
20 | Cn1cc(-c2ccc3c(c2)CCN3C(=O)Cc2ccccc2Cl)c2c(N)ncnc21 | 16.7%
21 | CCCC(=O)Nc1n[nH]c2ncccc12 | 20%

Row | Structure (SMILES) | MOTILITY REDUCTION/CYTOTOXICITY
22 | NC(=O)Nc1sc(-c2ccc(F)cc2)cc1C(N)=O | 33.4%
23 | O=C(Nc1cccc(-c2nn3ncccc3c2-c2ccnc(Nc3ccccc3)n2)c1)c1c(F)cccc1F | 0%
24 | Cc1csc(-c2nc(Nc3ccncc3)c3ccccc3n2)n1 | 33.4%
25 | Nc1ncnc2c1ncn2-c1cccc2ccccc12 | 0%
26 | Nc1n[nH]c2nnc(-c3ccccc3)c(-c3ccccc3)c12 | 0%
27 | O=C(Nc1cccc(-c2nn3ccccc3c2-c2ccnc(Nc3cccc(C(F)(F)F)c3)n2)c1)c1c(F)cccc1F | 26.7%
28 | CC(C)(C)c1ccc2nccc(Nc3cccc(O)c3)c2c1 | 100%
29 | Fc1ccc(-c2nc3n(c2-c2ccncc2)CCS3)cc1 | 13.4%
30 | COc1cccc(C2=C(Nc3cccc(O)c3)C(=O)NC2=O)c1 | 13.4%
31 | COc1cc2ncn(-c3cc(OCC4CCCCC4)c(C(N)=O)s3)c2cc1OC | 33.4%
32 | Nc1nc(-c2ccc3c(N)n[nH]c3c2)cc(N2CCCC(NC(=O)c3ccccc3)C2)n1 (stereo unspecified) | 0%
33 | O=C(Nc1n[nH]c2cc(-c3ccsc3)ccc12)C1CC1 | 0%
34 | CS(=O)(=O)CCNCc1nc(-c2ccc3ncnc(Nc4ccc(OCc5ccccc5)c(Cl)c4)c3c2)cs1 | 0%
35 | Cc1ccc(Nc2ccnc(Nc3ccc4c(c3)CS(=O)(=O)C4)n2)cc1O | 80%
36 | COc1cccc(C2=C(Nc3cc(Cl)c(O)c(Cl)c3)C(=O)NC2=O)c1 | 0%
37 | COc1cccc(-c2ccc3c(NC(=O)C4CC4)n[nH]c3n2)c1 | 20%
38 | Cc1cccc(-c2nc(Nc3ccncc3)c3sccc3n2)n1 | 46.7%
39 | COc1cc2ncnc(Nc3cccc(Br)c3)c2cc1OC | 60%
40 | CCS(=O)(=O)c1ccc(OC)c(Nc2nccc(-c3c(-c4cccc(NC(=O)c5c(F)cccc5F)c4)nn4ncccc34)n2)c1 | 33.4%
41 | COc1ccc(CNC(=O)NC2CCN(c3ccnc(Nc4ccc(F)cc4)n3)C2)cc1 (stereo unspecified) | 0%
42 | CN1CCN(Cc2ccc(NC(=O)Nc3ccc(N(C)c4ccnc(Nc5ccc(CS(C)(=O)=O)cc5)n4)cc3)cc2)CC1 | 100%

Row | Structure (SMILES) | MOTILITY REDUCTION/CYTOTOXICITY
43 | Oc1ccc2ncnc(Nc3ccc(OCc4ccccc4)cc3)c2c1 | 100%
44 | COc1cccc(-c2[nH]c(-c3ccccc3)nc2-c2ccncc2)c1 | 33.4%
45 | Cc1ccc(NC(=O)c2ccnc(N3CCCCC3)c2)cc1-c1ccc(C(=O)NCC2CC2)cc1 | 0%
46 | O=C1NC(=O)C(c2ccccc2)=C1Nc1cc(Cl)c(O)c(Cl)c1 | 0%
47 | Cc1cc(Nc2nc(-c3cccc(C)n3)nc3ccccc23)ccn1 | 0%
48 | c1ccc(-c2ccnc3[nH]ccc23)cc1 | 33.4%
49 | COc1cc(Nc2nccc(N3CCC(NS(=O)(=O)c4ccc(NC(C)=O)cc4)CC3)n2)cc(OC)c1OC | 33.4%
50 | c1ccc(Cn2ncc3cc(Nc4ncnc5ccccc45)ccc32)cc1 | 0%
51 | Cc1cc(-c2ccnc(Nc3cccc(C#N)c3)n2)cc(C)c1O | 0%
52 | c1ccc(-c2cnc3nccnn23)cc1 | 0%
53 | O=C1NC(=O)C(c2ccc(Cl)cc2)=C1Nc1ccc(O)c(Cl)c1 | 33.4%
54 | Cc1ccc(C)c(NC(=O)NC2CCN(c3ccnc(Nc4ccc(F)cc4)n3)C2)c1 (stereo unspecified) | 33.4%
55 | CSc1cccc2c(-c3ccncn3)c(-c3ccc(F)cc3)nn12 | 33.4%
56 | Nc1n[nH]c2nnc(-c3ccccc3)cc12 | 0%
57 | FC(F)(F)c1ccc(-c2cc(-c3c[nH]nc3-c3ccccn3)ccn2)cc1 | 0%
58 | CSc1ccc(-c2nc3n(c2-c2ccncc2)CCC3)cc1 | 0%
59 | CCCc1ccc(S(=O)(=O)NC2CCN(c3ccnc(Nc4ccc(F)cc4)n3)C2)cc1 (stereo unspecified) | 0%
60 | CN(C)CCN(C)C(=O)c1cc(-c2ccncc2)c(-c2ccc(Cl)c(O)c2)o1 | 20%
61 | O=C(Nc1c(F)cccc1F)c1cc(C(=O)c2ccccc2F)c[nH]1 | 0%
